Measured values as given in the NIST ThermoML archive (doi:10.1021/je050440b).
± gives the expanded uncertainty stated by the source.

Experiment: activity coefficient (dimensionless); of the first substance listed, at infinite dilution; xn = mol fraction of the nth substance listed
Conditions: Liquid, Chromatography, x1 = 0

CCCCCCO [hexan-1-ol] + CCCC[N+](C)(C)C.O=S(=O)([N-]S(=O)(=O)C(F)(F)F)C(F)(F)F
activity coefficient (343.65 K): 4.02 ± 0.27 | activity coefficient (354.05 K): 3.58 ± 0.24 | activity coefficient (364.45 K): 3.24 ± 0.22 | activity coefficient (385.55 K): 2.67 ± 0.18

CCCCCC=O [hexanal] + CCCC[N+](C)(C)C.O=S(=O)([N-]S(=O)(=O)C(F)(F)F)C(F)(F)F
activity coefficient (322.75 K): 1.92 ± 0.13 | activity coefficient (333.25 K): 1.9 ± 0.13 | activity coefficient (343.55 K): 1.88 ± 0.13 | activity coefficient (354.15 K): 1.85 ± 0.12 | activity coefficient (364.65 K): 1.84 ± 0.12

CCCCCC [hexane] + CCCC[N+](C)(C)C.O=S(=O)([N-]S(=O)(=O)C(F)(F)F)C(F)(F)F
activity coefficient (301.85 K): 19.4 ± 1.3 | activity coefficient (312.35 K): 18.1 ± 1.2 | activity coefficient (322.85 K): 17.6 ± 1.2 | activity coefficient (333.35 K): 16.3 ± 1.1

CO [methanol] + CCCC[N+](C)(C)C.O=S(=O)([N-]S(=O)(=O)C(F)(F)F)C(F)(F)F
activity coefficient (303.95 K): 1.55 ± 0.1 | activity coefficient (312.05 K): 1.42 ± 0.09 | activity coefficient (333.25 K): 1.15 ± 0.07 | activity coefficient (343.65 K): 1.02 ± 0.06

CCCC(=O)OC [methyl butanoate] + CCCC[N+](C)(C)C.O=S(=O)([N-]S(=O)(=O)C(F)(F)F)C(F)(F)F
activity coefficient (311.65 K): 1.31 ± 0.09 | activity coefficient (333.15 K): 1.26 ± 0.08 | activity coefficient (364.45 K): 1.2 ± 0.08

CCCCCCC(=O)OC [methyl heptanoate] + CCCC[N+](C)(C)C.O=S(=O)([N-]S(=O)(=O)C(F)(F)F)C(F)(F)F
activity coefficient (343.55 K): 3.18 ± 0.22 | activity coefficient (354.05 K): 3.01 ± 0.2 | activity coefficient (364.55 K): 2.81 ± 0.19 | activity coefficient (374.95 K): 2.64 ± 0.18 | activity coefficient (385.45 K): 2.43 ± 0.17

CCCCCC(=O)OC [methyl hexanoate] + CCCC[N+](C)(C)C.O=S(=O)([N-]S(=O)(=O)C(F)(F)F)C(F)(F)F
activity coefficient (343.65 K): 2.43 ± 0.17 | activity coefficient (354.05 K): 2.33 ± 0.16 | activity coefficient (364.55 K): 2.19 ± 0.15 | activity coefficient (374.95 K): 2.08 ± 0.14

CCCCC(=O)OC [methyl pentanoate] + CCCC[N+](C)(C)C.O=S(=O)([N-]S(=O)(=O)C(F)(F)F)C(F)(F)F
activity coefficient (322.75 K): 1.66 ± 0.11 | activity coefficient (333.15 K): 1.63 ± 0.11 | activity coefficient (364.55 K): 1.44 ± 0.09 | activity coefficient (374.95 K): 1.33 ± 0.09

CCC(=O)OC [methyl propanoate] + CCCC[N+](C)(C)C.O=S(=O)([N-]S(=O)(=O)C(F)(F)F)C(F)(F)F
activity coefficient (311.65 K): 0.94 ± 0.06 | activity coefficient (333.15 K): 0.92 ± 0.06 | activity coefficient (343.75 K): 0.91 ± 0.06

CCCCCCCCC [nonane] + CCCC[N+](C)(C)C.O=S(=O)([N-]S(=O)(=O)C(F)(F)F)C(F)(F)F
activity coefficient (301.65 K): 67.5 ± 4.6 | activity coefficient (312.15 K): 59.8 ± 4.1 | activity coefficient (322.75 K): 52.6 ± 3.6 | activity coefficient (333.25 K): 47.3 ± 3.2 | activity coefficient (343.65 K): 43.2 ± 3 | activity coefficient (354.05 K): 39 ± 2.7 | activity coefficient (364.55 K): 36 ± 2.5 | activity coefficient (374.95 K): 32.3 ± 2.2

C=CCCCCCC [oct-1-ene] + CCCC[N+](C)(C)C.O=S(=O)([N-]S(=O)(=O)C(F)(F)F)C(F)(F)F
activity coefficient (306.75 K): 22.9 ± 1.6 | activity coefficient (312.98 K): 22 ± 1.5 | activity coefficient (322.55 K): 20.4 ± 1.4 | activity coefficient (333.25 K): 19 ± 1.3 | activity coefficient (343.65 K): 17.2 ± 1.2 | activity coefficient (354.05 K): 16.2 ± 1.1 | activity coefficient (364.55 K): 15.1 ± 1

CCCCCCCC=O [octanal] + CCCC[N+](C)(C)C.O=S(=O)([N-]S(=O)(=O)C(F)(F)F)C(F)(F)F
activity coefficient (364.64 K): 3.53 ± 0.24 | activity coefficient (374.95 K): 3.48 ± 0.24 | activity coefficient (385.45 K): 3.44 ± 0.23 | activity coefficient (395.95 K): 3.37 ± 0.23

CCCCCCCC [octane] + CCCC[N+](C)(C)C.O=S(=O)([N-]S(=O)(=O)C(F)(F)F)C(F)(F)F
activity coefficient (301.62 K): 45.4 ± 3.1 | activity coefficient (312.15 K): 41 ± 2.8 | activity coefficient (322.75 K): 37.2 ± 2.5 | activity coefficient (333.25 K): 34.1 ± 2.3

CCCCCO [pentan-1-ol] + CCCC[N+](C)(C)C.O=S(=O)([N-]S(=O)(=O)C(F)(F)F)C(F)(F)F
activity coefficient (322.85 K): 3.85 ± 0.26 | activity coefficient (333.15 K): 3.39 ± 0.23 | activity coefficient (343.65 K): 3.01 ± 0.2 | activity coefficient (354.05 K): 2.72 ± 0.19 | activity coefficient (364.45 K): 2.45 ± 0.17

CCCCC=O [pentanal] + CCCC[N+](C)(C)C.O=S(=O)([N-]S(=O)(=O)C(F)(F)F)C(F)(F)F
activity coefficient (301.75 K): 1.71 ± 0.11 | activity coefficient (312.25 K): 1.65 ± 0.11 | activity coefficient (322.75 K): 1.62 ± 0.11 | activity coefficient (333.25 K): 1.57 ± 0.1 | activity coefficient (343.55 K): 1.5 ± 0.1 | activity coefficient (354.15 K): 1.46 ± 0.1

CCCCC [pentane] + CCCC[N+](C)(C)C.O=S(=O)([N-]S(=O)(=O)C(F)(F)F)C(F)(F)F
activity coefficient (301.85 K): 13.7 ± 0.93 | activity coefficient (322.85 K): 13.9 ± 0.95

CCCCCc1ccccc1 [pentylbenzene] + CCCC[N+](C)(C)C.O=S(=O)([N-]S(=O)(=O)C(F)(F)F)C(F)(F)F
activity coefficient (354.05 K): 7.92 ± 0.54 | activity coefficient (364.45 K): 7.69 ± 0.52 | activity coefficient (374.95 K): 7.36 ± 0.5 | activity coefficient (385.45 K): 7.07 ± 0.48

CCCO [propan-1-ol] + CCCC[N+](C)(C)C.O=S(=O)([N-]S(=O)(=O)C(F)(F)F)C(F)(F)F
activity coefficient (301.75 K): 2.76 ± 0.19 | activity coefficient (312.15 K): 2.43 ± 0.17 | activity coefficient (322.85 K): 2.14 ± 0.15 | activity coefficient (333.35 K): 1.9 ± 0.13

CC(C)O [propan-2-ol] + CCCC[N+](C)(C)C.O=S(=O)([N-]S(=O)(=O)C(F)(F)F)C(F)(F)F
activity coefficient (302.55 K): 2.4 ± 0.16 | activity coefficient (312.15 K): 2.14 ± 0.15 | activity coefficient (322.85 K): 1.89 ± 0.13 | activity coefficient (333.35 K): 1.67 ± 0.11 | activity coefficient (343.65 K): 1.53 ± 0.1 | activity coefficient (354.05 K): 1.37 ± 0.09

CCC=O [propanal] + CCCC[N+](C)(C)C.O=S(=O)([N-]S(=O)(=O)C(F)(F)F)C(F)(F)F
activity coefficient (301.65 K): 0.58 ± 0.04 | activity coefficient (312.25 K): 0.57 ± 0.04 | activity coefficient (322.75 K): 0.54 ± 0.04 | activity coefficient (333.25 K): 0.53 ± 0.04 | activity coefficient (343.55 K): 0.52 ± 0.04

CCCc1ccccc1 [propylbenzene] + CCCC[N+](C)(C)C.O=S(=O)([N-]S(=O)(=O)C(F)(F)F)C(F)(F)F
activity coefficient (333.25 K): 3.95 ± 0.27 | activity coefficient (343.65 K): 3.86 ± 0.26 | activity coefficient (354.05 K): 3.79 ± 0.26 | activity coefficient (364.45 K): 3.69 ± 0.25

Cc1ccccc1 [toluene] + CCCC[N+](C)(C)C.O=S(=O)([N-]S(=O)(=O)C(F)(F)F)C(F)(F)F
activity coefficient (322.75 K): 1.73 ± 0.12 | activity coefficient (333.25 K): 1.71 ± 0.11 | activity coefficient (343.65 K): 1.7 ± 0.11 | activity coefficient (364.45 K): 1.68 ± 0.11

ClC(Cl)Cl [trichloromethane] + CCCC[N+](C)(C)C.O=S(=O)([N-]S(=O)(=O)C(F)(F)F)C(F)(F)F
activity coefficient (301.75 K): 1.03 ± 0.06 | activity coefficient (312.15 K): 1.04 ± 0.07 | activity coefficient (333.25 K): 1.04 ± 0.07

CCCCCCCCCCC [undecane] + CCCC[N+](C)(C)C.O=S(=O)([N-]S(=O)(=O)C(F)(F)F)C(F)(F)F
activity coefficient (333.25 K): 94.4 ± 6.5 | activity coefficient (343.65 K): 83.9 ± 5.8 | activity coefficient (354.05 K): 73.3 ± 5 | activity coefficient (364.55 K): 66.3 ± 4.5 | activity coefficient (374.95 K): 56 ± 3.8
